From paper PMC12077149, “Evolution of PqsE as a Pseudomonas aeruginosa-specific regulator of LuxR-type receptors: insights from Pseudomonas and Burkholderia” (mBio, 2025)

Key:
CepR [1] = target: T1, CepR (Burkholderia cepacia, UniProt Q9AM51); assay: protein solubilization in E. coli, SDS-PAGE; format: cell-based; settings: AHL added at induction
T1 construct: gene CO711_26440; untagged full-length, in E. coli (arabinose-inducible with pcepI-luxCDABE reporter; pET-DUET for solubility)

HhqE^Bc [2] = test system: T2, HhqE^Bc; assay: thiol release with Ellman's reagent, A412; format: biochemical, Burkholderia cepacia; settings: 0.1 M Tris-HCl pH 8.0, 2 mM DTNB; 2 µM enzyme; substrate up to 1 mM
T2 construct: 6xHis-tagged, E. coli BL21(DE3), Ni-NTA and SEC; monomer (~32 kDa by SEC)
Excerpt: thiol release with Ellman's reagent, A412 on HhqE^Bc

CepR [3] = target: T1, CepR; assay: E. coli pcepI-lux reporter; protein solubilization; format: cell-based; settings: 10 µM AHL in reporter; agonist
HhqE^Bc [4] = test system: T2, HhqE^Bc; assay: fluorescence hydrolysis assay (ex […] / em […] nm); format: biochemical, Burkholderia cepacia; settings: 50 mM Tricine, 0.01% Triton X-100; 2 µM enzyme; substrate up to 8 µM

T1 sequence (Q9AM51 entry or part of it): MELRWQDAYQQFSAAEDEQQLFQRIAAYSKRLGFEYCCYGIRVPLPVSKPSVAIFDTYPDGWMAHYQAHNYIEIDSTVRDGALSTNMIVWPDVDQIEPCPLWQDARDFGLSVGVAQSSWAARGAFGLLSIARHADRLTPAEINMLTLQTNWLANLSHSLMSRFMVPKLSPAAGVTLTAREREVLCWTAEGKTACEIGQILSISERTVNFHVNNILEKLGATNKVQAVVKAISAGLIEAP

Compound	protein solubilization in E. coli, SDS-PAGE (CepR [1])	E. coli pcepI-lux reporter; protein solubilization (CepR [3])	also measured
CCCCCCCCCC(=O)CC(=O)N[C@H]1CCOC1=O [3OC12HSL]	C6HSL, C8HSL, C10HSL, and 3OC12HSL—were sufficient for the solubilization of CepR	–	–
CC(=O)CC(=O)SCCNC(=O)CCNC(=O)[C@H](O)C(C)(C)COP(=O)(O)OP(=O)(O)OC[C@H]1O[C@@H](n2cnc3c(N)ncnc32)[C@H](O)[C@@H]1OP(=O)(O)O [Acetoacetyl-CoA]	–	–	Km (HhqE^Bc [2]): 7.5 ± 0.4 mM
CCCCCC(=O)N[C@H]1CCOC1=O [C6HSL]	C6HSL, C8HSL, C10HSL, and 3OC12HSL—were sufficient for the solubilization of CepR	–	–
CCCCCCCC(=O)N[C@H]1CCOC1=O [C8HSL]	–	CepR responded to its cognate ligand C8HSL and, to a lesser extent, C10HSL	–
CCCCCCCCCC(=O)N[C@H]1CCOC1=O [C10HSL]	–	CepR responded to its cognate ligand C8HSL and, to a lesser extent, C10HSL	–
CCCC(=O)Oc1ccc2c(C)cc(=O)oc2c1 [MU-butyrate]	–	–	Km (HhqE^Bc [4]): 0.00016 mM
